In patent US11021446B2 (NOVARTIS AG, priority 2013, dated 2021):

target: T1, human Farnesoid X Receptor (FXR) ligand binding domain (GST-FXR LBD) (Homo sapiens, UniProt Q96RI1); experiment: Human GST-FXR LBD co-activator interaction assay (FXR HTRF assay); assay type: biochemical; conditions: GST-FXR LBD interaction with biotin-labeled SRC-1 peptide, FRET, response relative to GW4064, read-out: FXR coactivator interaction assay (HTRF)
T1 construct: purchased Invitrogen
T1 sequence (Q96RI1 193-472 isoform Q96RI1-2): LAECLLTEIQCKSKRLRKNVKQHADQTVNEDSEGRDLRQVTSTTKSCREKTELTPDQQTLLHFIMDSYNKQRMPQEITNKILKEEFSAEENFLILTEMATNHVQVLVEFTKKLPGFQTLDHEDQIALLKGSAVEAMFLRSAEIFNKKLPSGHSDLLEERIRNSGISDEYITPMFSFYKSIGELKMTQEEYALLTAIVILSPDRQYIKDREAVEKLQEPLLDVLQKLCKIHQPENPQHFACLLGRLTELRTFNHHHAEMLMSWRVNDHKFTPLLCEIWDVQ
Excerpt: Human GST-FXR LBD Co-Activator Interaction Assay
The FXR HTRF assay is a biochemical assay measuring the interaction between FXR and a coactivator protein (SRC1). The ligand-induced interaction with a coactivator protein is a critical step in transcriptional activation by FXR. Thus, this is an assay designed to measure FXR agonist activity of the test compounds.
Recombinant human Farnesoid X Receptor (FXR) ligand binding domain (amino acids 193-472) fused to glutathione S-transferase (GST) purified protein (GST-FXR LBD) was purchased (Invitrogen). The ligand-dependent interaction between GST-FXR LBD and a peptide derived from Steroid Receptor Coactivator-1 (SRC-1) was monitored by Fluorescence Resonance Energy Transfer (FRET). […] Test compounds (in DMSO solution) and detection reagents (anti-GST-Cryptate labeled antibody and Streptavidin-XL665 conjugate; CisBio) were added in assay buffer containing 50 mM KF. Plates are incubated at room temperature in the dark for 2.5 hrs before reading on an Envision (PerkinElmer) at 665 nm and 590 nm. The HTRF assay results were calculated from the 665 nm/590 nm ratio (ratio=(A665 nm/A590 nm)×10^4) and expressed in Delta F %=(Ratiosample−Rationegative)/Rationegative×100.
A negative control (without Streptavidin-XL665) was run with each assay and represented the background fluorescence. A reference FXR agonist, (E)-3-(2-chloro-4-((3-(2,6-dichlorophenyl)-5-isopropylisoxazol-4-yl)methoxy)styryl)benzoic acid (Compound GW4064), was included in each experiment as positive control. The efficacy of each test compound was compared to that of GW4064. At each concentration, the relative activity of the test compound was expressed as Response %=(Rsample−RDMSO)/(Rpositive−RDMSO), where Rsample is the HTRF response (expressed in Delta F %) for the test compound, Rpositive is the maximal response for GW4064 at saturating concentrations, and RDMSO is the response for DMSO control. The EC50 values were calculated using GraphPad Prism (GraphPad Software) using non-linear regression curve fit (log(agonist) vs. response-variable slope (four parameters)).

SMILES | EC50 [nM]
Cn1nc(C(=O)N(Cc2ccc(C(=O)O)nc2)Cc2cccc(F)c2)c2c1-c1cc(Cl)ccc1OC2 [Compound 87, 5-((8-chloro-N-(3-fluorobenzyl)-1-methyl-1,4-dihydrochromeno[4,3-c]pyrazole-3-carboxamido)methyl)picolinic acid] | 28
Cn1nc(C(=O)N(Cc2ccc(C(=O)O)cc2)Cc2cccc(F)c2)c2c1-c1cc(Cl)ccc1OC2 [Compound 95, 4-((8-chloro-N-(3-fluorobenzyl)-1-methyl-1,4-dihydrochromeno[4,3-c]pyrazole-3-carboxamido)methyl)benzoic acid] | 3.5
Cn1nc(C(=O)N(CCNc2cc(C(=O)O)ccc2F)Cc2ccccc2)c2c1-c1cc(F)ccc1OC2 [Compound 71, 3-((2-(N-benzyl-8-fluoro-1-methyl-1,4-dihydrochromeno[4,3-c]pyrazole-3-carboxamido)ethyl)amino)-4-fluorobenzoic acid] | 22
Cn1nc(C(=O)N(CCNc2cc(C(=O)O)ccc2F)Cc2ccccc2F)c2c1-c1cc(F)ccc1OC2 [Compound 69, 4-fluoro-3-((2-(8-fluoro-N-(2-fluorobenzyl)-1-methyl-1,4-dihydrochromeno[4,3-c]pyrazole-3-carboxamido)ethyl)amino)benzoic acid] | 25
Cc1ccc2c(c1)-c1c(c(C(=O)N(CC(=O)Nc3cccc(C(=O)O)c3)Cc3ccccc3F)nn1C)CO2 [Compound 5, 3-(2-(N-(2-fluorobenzyl)-1,8-dimethyl-1,4-dihydrochromeno[4,3-c]pyrazole-3-carboxamido)acetamido)benzoic acid] | 0.8
Cn1nc(C(=O)N(CCOc2c(F)cc(C(=O)O)cc2F)Cc2ccccc2F)c2c1-c1cc(F)ccc1OC2 [Compound 53, 3,5-difluoro-4-(2-(8-fluoro-N-(2-fluorobenzyl)-1-methyl-1,4-dihydrochromeno[4,3-c]pyrazole-3-carboxamido)ethoxy)benzoic acid] | 17
Cn1nc(C(=O)N(CC(=O)Nc2cccc(C(=O)O)c2)CC2CCCC2)c2c1-c1cc(Cl)ccc1OC2 [Compound 37, 3-(2-(8-chloro-N-(cyclopentylmethyl)-1-methyl-1,4-dihydrochromeno[4,3-c]pyrazole-3-carboxamido)acetamido)benzoic Acid] | 24
Cn1nc(C(=O)N(CC(=O)Nc2cc(C(=O)O)ccc2F)Cc2ccccc2)c2c1-c1cc(Cl)ccc1OC2 [Compound 29, 3-(2-(N-benzyl-8-chloro-1-methyl-1,4-dihydrochromeno[4,3-c]pyrazole-3-carboxamido)acetamido)-4-fluorobenzoic acid] | 0.67
Cn1nc(C(=O)N(CC(=O)Nc2cccc(C(=O)O)c2)Cc2ccccc2F)c2c1-c1cc(F)c(F)cc1OC2 [Compound 10] | 1.7
Cn1nc(C(=O)N(Cc2ccccc2)Cc2ccc(C(=O)O)cc2)c2c1-c1cc(Cl)ccc1OC2 [Compound 75, 4-((N-benzyl-8-chloro-1-methyl-1,4-dihydrochromeno[4,3-c]pyrazole-3-carboxamido)methyl)benzoic Acid] | 6
Cn1nc(C(=O)N(CC(=O)Nc2cc(C(=O)O)ccc2F)Cc2ccccc2F)c2c1-c1cc(Cl)ccc1OC2 [Compound 64, 3-(2-(8-chloro-N-(2-fluorobenzyl)-1-methyl-1,4-dihydrochromeno[4,3-c]pyrazole-3-carboxamido)acetamido)-4-fluorobenzoic Acid] | 0.6
Cn1nc(C(=O)N(CC(=O)Nc2cccc(C(=O)O)c2)Cc2ccccc2F)c2c1-c1cc(Cl)cc(F)c1OC2 [Compound 15, 3-(2-(8-chloro-6-fluoro-N-(2-fluorobenzyl)-1-methyl-1,4-dihydrochromeno[4,3-c]pyrazole-3-carboxamido)acetamido)benzoic acid] | 2.22
Cn1nc(C(=O)N(CCNc2cc(C(=O)O)ccc2F)Cc2ccccc2)c2c1-c1cc(F)c(F)cc1OC2 [Compound 74, 3-((2-(N-benzyl-7,8-difluoro-1-methyl-1,4-dihydrochromeno[4,3-c]pyrazole-3-carboxamido)ethyl)amino)-4-fluorobenzoic acid] | 55
Cn1nc(C(=O)N(CC(=O)NCC(C)(C)C(=O)O)Cc2ccccc2F)c2c1-c1cc(Cl)ccc1OC2 [Compound 41, 3-(2-(8-chloro-N-(2-fluorobenzyl)-1-methyl-1,4-dihydrochromeno[4,3-c]pyrazole-3-carboxamido)acetamido)-2,2-dimethylpropanoic acid] | 4
Cc1cccc(CN(CC(=O)Nc2cc(C(=O)O)ccc2F)C(=O)c2nn(C)c3c2COc2ccccc2-3)c1 [Compound 4, 4-fluoro-3-(2-(1-methyl-N-(3-methylbenzyl)-1,4-dihydrochromeno[4,3-c]pyrazole-3-carboxamido)acetamido)benzoic acid] | 0.75
Cn1nc(C(=O)N(Cc2ccccc2)Cc2ccc(C(=O)O)c(F)c2)c2c1-c1cc(Cl)ccc1OC2 [Compound 91, 4-((N-benzyl-8-chloro-1-methyl-1,4-dihydrochromeno[4,3-c]pyrazole-3-carboxamido)methyl)-2-fluorobenzoic acid] | 6.5
Cn1nc(C(=O)N(CC(=O)NCC2(C(=O)O)CC2)Cc2ccccc2F)c2c1-c1cc(Cl)ccc1OC2 [Compound 42, 1-((2-(8-chloro-N-(2-fluorobenzyl)-1-methyl-1,4-dihydrochromeno[4,3-c]pyrazole-3-carboxamido)acetamido)methyl) cyclopropanecarboxylic acid] | 2.5
Cc1ccc(C(=O)O)cc1NC(=O)CN(Cc1ccccc1F)C(=O)c1nn(C)c2c1COc1ccc(Cl)cc1-2 [Compound 39] | 5.9
Cc1cccc2c1OCc1c(C(=O)N(CC(=O)Nc3cccc(C(=O)O)c3)Cc3ccccc3F)nn(C)c1-2 [Compound 6, 3-(2-(N-(2-fluorobenzyl)-1,6-dimethyl-1,4-dihydrochromeno[4,3-c]pyrazole-3-carboxamido)acetamido)benzoic acid] | 2.4
Cn1nc(C(=O)N(CC(=O)Nc2cccc(C(=O)O)c2)Cc2ccccc2F)c2c1-c1cc(Cl)ccc1OC2 [Compound 35, 3-(2-(8-chloro-N-(2-fluorobenzyl)-1-methyl-1,4-dihydrochromeno[4,3-c]pyrazole-3-carboxamido)acetamido)benzoic Acid] | 0.77
Cn1nc(C(=O)N(Cc2cccc(F)c2)Cc2ccc(C(=O)O)cc2F)c2c1-c1cc(Cl)ccc1OC2 [Compound 96, 4-((8-chloro-N-(3-fluorobenzyl)-1-methyl-1,4-dihydrochromeno[4,3-c]pyrazole-3-carboxamido)methyl)-3-fluorobenzoic acid] | 3.6
Cc1cc(F)cc(CN(Cc2ccc(C(=O)O)cc2)C(=O)c2nn(C)c3c2COc2ccc(Cl)cc2-3)c1 [Compound 82, 4-((8-chloro-N-(3-fluoro-5-methylbenzyl)-1-methyl-1,4-dihydrochromeno[4,3-c]pyrazole-3-carboxamido)methyl)benzoic acid] | 12
Cn1nc(C(=O)N(Cc2ccc(C(=O)O)cc2)Cc2cccc(F)c2F)c2c1-c1cc(Cl)ccc1OC2 [Compound 81, 4-((8-chloro-N-(2,3-difluorobenzyl)-1-methyl-1,4-dihydrochromeno[4,3-c]pyrazole-3-carboxamido)methyl)benzoic acid] | 21
Cc1cc(C(=O)O)ccc1OCCN(Cc1ccccc1F)C(=O)c1nn(C)c2c1COc1ccc(Cl)cc1-2 [Compound 46] | 3.2
Cn1nc(C(=O)N(CC(=O)Nc2cc(C(=O)O)ccc2F)Cc2ccccc2F)c2c1-c1ccccc1OC2 [Compound 16, 4-fluoro-3-(2-(N-(2-fluorobenzyl)-1-methyl-1,4-dihydrochromeno[4,3-c]pyrazole-3-carboxamido)acetamido)benzoic acid] | 3.4
Cn1nc(C(=O)N(CCOc2ccc(C(=O)O)cc2F)Cc2cccc(F)c2)c2c1-c1cc(F)ccc1OC2 [Compound 58, 3-fluoro-4-(2-(8-fluoro-N-(3-fluorobenzyl)-1-methyl-1,4-dihydrochromeno[4,3-c]pyrazole-3-carboxamido)ethoxy)benzoic acid] | 22
Cn1nc(C(=O)N(CC(=O)Nc2cccc(C(=O)O)c2)Cc2ccccc2F)c2c1-c1cc(F)cc(F)c1OC2 [Compound 11, 3-(2-(6,8-difluoro-N-(2-fluorobenzyl)-1-methyl-1,4-dihydrochromeno[4,3-c]pyrazole-3-carboxamido)acetamido)benzoic acid] | 3.3
